Data from DBAASP.
In brackets after ≈: the same amount, converted by molar mass.

How the values were obtained:
Experiment in all cases: ≥ marks a high value that may be exact or a test limit, other limits are often not marked, values filed in µg/mL are converted to µM
[1] = system: Staphylococcus aureus NCTC 8325
[2] = system: Escherichia coli ATCC 25922
[3] = system: Candida albicans ATCC 90028
Staphylococcus aureus = system: Staphylococcus aureus
Bacillus subtilis = system: Bacillus subtilis
[4] = system: Escherichia coli DH5alpha
[5] = system: Pseudomonas aeruginosa PAO1
[6] = system: Klebsiella pneumoniae ATCC 13883
[7] = system: Staphylococcus aureus USA 300
[8] = system: Bacillus subtilis ATCC 6051
[9] = system: Streptococcus pyogenes ATCC 19615
[10] = system: Enterococcus faecalis ATCC 29212
[11] = system: Pseudomonas aeruginosa ATCC 27853
[12] = system: Salmonella enterica subsp. enterica serovar Typhimurium ATCC 14028
[13] = system: Staphylococcus aureus ATCC 25923
Escherichia coli = system: Escherichia coli

`CC[C@@H](C)[C@H](N=C(O)[C@H](CO)N=C(O)C(CC(C)C)N=C(O)[C@H](CCSC)N=C(O)[C@@H]1CCCN1C(=O)[C@H](CC(C)C)N=C(O)CN=C(O)[C@H](N)Cc1ccccc1)C(O)=N[C@H](CC(C)C)C(=O)N1CCCC1C(O)=N[C@H](CCCCN)C(O)=N[C@H](C)C(O)=N[C@H](CC(C)C)C(O)=N[C@H](CS)C(O)=N[C@H](C(O)=N[C@H](CC(C)C)C(O)=N[C@H](CC(C)C)C(O)=N[C@H](CCCCN)C(O)=N[C@H](CCCNC(=N)N)C(O)=N[C@H](CCCCN)C(O)=N[C@H](CS)C(=O)O)[C@H](C)CC` (some centres undefined) [FGLPMLSILPKALCILLKRKC] showed an MIC [1] of 20 µM (≈ 47.2 µg/mL) and an MIC [2] of 12 µM (≈ 28.3 µg/mL).
In the case of `CC[C@H](C)[C@H](NC(=O)[C@H](CC(C)C)NC(=O)[C@@H]1CCCN1C(=O)[C@H](CC(C)C)NC(=O)[C@@H](NC(=O)[C@@H](N)Cc1ccccc1)[C@@H](C)CC)C(=O)N[C@@H](C)C(=O)N[C@@H](CO)C(=O)N[C@@H](Cc1ccccc1)C(=O)N[C@@H](CC(C)C)C(=O)N[C@@H](CO)C(=O)N[C@@H](CCCCN)C(=O)N[C@@H](Cc1ccccc1)C(=O)N[C@@H](CC(C)C)C(N)=O` [FILPLIASFLSKFL], the MIC [1] is reported as 12 µM (≈ 19.3 µg/mL).
Molecule `CC[C@H](C)[C@H](NC(=O)[C@H](C)NC(=O)[C@@H]1CCCN1C(=O)[C@H](CC(C)C)NC(=O)[C@@H](N)Cc1ccccc1)C(=O)N[C@H](C(=O)NCC(=O)N[C@@H](C)C(=O)N[C@@H](C)C(=O)N[C@@H](C)C(=O)N[C@@H](CCCCN)C(=O)N[C@@H](Cc1ccccc1)C(=O)N[C@@H](CC(C)C)C(=O)N1CCC[C@H]1C(=O)N[C@@H](CCCCN)C(=O)N[C@H](C(=O)N[C@@H](Cc1ccccc1)C(=O)N[C@H]1CSSC[C@@H](C(=O)O)NC(=O)[C@H](CCCCN)NC(=O)[C@H](CCCCN)NC(=O)[C@H](CO)NC(=O)[C@H]([C@@H](C)CC)NC(=O)[C@H](C(C)C)NC1=O)[C@@H](C)CC)C(C)C` [FLPAIVGAAAKFLPKIFCVISKKC] has an MIC [1] of 3 µM (≈ 7.69 µg/mL) and an MIC [2] of 15 µM (≈ 38.4 µg/mL).
`CC[C@H](C)[C@@H]1NC(=O)[C@H](C)NC(=O)[C@@H](NC(=O)[C@H](Cc2ccccc2)NC(=O)[C@@H](NC(=O)[C@H](CCCCN)NC(=O)[C@@H]2CCCN2C(=O)[C@H](CC(C)C)NC(=O)[C@H](Cc2ccccc2)NC(=O)[C@H](CC(N)=O)NC(=O)[C@H](C)NC(=O)[C@H](C)NC(=O)[C@H](CCSC)NC(=O)CNC(=O)[C@H](C)NC(=O)[C@@H](NC(=O)[C@H](Cc2ccccc2)NC(=O)[C@@H]2CCCN2C(=O)[C@H](CC(C)C)NC(=O)[C@@H](N)Cc2ccccc2)[C@@H](C)CC)[C@@H](C)CC)CSSC[C@@H](C(=O)O)NC(=O)[C@H](CCCCN)NC(=O)[C@H](CCCCN)NC(=O)[C@H](CO)NC1=O` [FLPFIAGMAANFLPKIFCAISKKC] was tested, and the MIC [1] was 8 µM (≈ 21 µg/mL) and the MIC [2] was 19 µM (≈ 50 µg/mL).
Molecule `CC[C@H](C)[C@H](NC(=O)[C@@H](NC(=O)[C@@H]1CCCN1C(=O)[C@H](CC(C)C)NC(=O)[C@@H](N)Cc1ccccc1)[C@@H](C)CC)C(=O)N[C@@H](C)C(=O)N[C@@H](CCCCN)C(=O)N[C@H](C(=O)N[C@@H](CC(C)C)C(=O)N[C@@H](CO)C(=O)NCC(=O)N[C@@H](CC(C)C)C(=O)N[C@@H](CC(C)C)C(N)=O)C(C)C` [FLPIIAKVLSGLL] has an MIC [1] of 15 µM (≈ 20.7 µg/mL).
Molecule `CC[C@H](C)[C@H](NC(=O)[C@H](CC(C)C)NC(=O)[C@H](CCCCN)NC(=O)[C@H](CO)NC(=O)[C@@H](NC(=O)[C@H](C)NC(=O)[C@H](CCCCN)NC(=O)[C@@H](NC(=O)[C@H](C)NC(=O)[C@H](Cc1cnc[nH]1)NC(=O)[C@@H]1CCCN1C(=O)[C@@H](NC(=O)[C@H](CC(C)C)NC(=O)[C@@H]1CCCN1C(=O)CNC(=O)[C@@H](NC(=O)[C@H](Cc1ccc(O)cc1)NC(=O)[C@H](CCCCN)NC(=O)[C@H](CCSC)NC(=O)[C@H](Cc1ccccc1)NC(=O)CN)[C@@H](C)CC)[C@@H](C)CC)C(C)C)[C@@H](C)CC)C(=O)O` [GFMKYIGPLIPHAVKAISKLI] has an MIC [1] of no less than 50 µM, an MIC [3] of no less than 100 µM and an MIC [2] of 25 µM (≈ 57.4 µg/mL).
Work on `CC[C@H](C)[C@H](NC(=O)CN)C(=O)N[C@@H](Cc1ccccc1)C(=O)N[C@H](C(=O)N[C@@H](CCCCN)C(=O)N[C@H](C(=O)N[C@@H](CC(N)=O)C(=O)N[C@@H](CCCCN)C(=O)N[C@@H](CCCCN)C(=O)N[C@@H](CCCCN)C(=O)N[C@@H](C)C(=O)N[C@@H](CCCCN)C(=O)N[C@H](C(=O)NCC(=O)N[C@H](C(=O)N[C@@H](Cc1ccccc1)C(=O)N[C@@H](CC(N)=O)C(=O)N[C@H](C(=O)N[C@H](C(=O)N[C@@H](CCCCN)C(=O)N[C@H](C(=O)N[C@H](C(=O)NCC(=O)N[C@@H](CCCCN)C(=O)N[C@@H](CCC(=O)O)C(=O)N[C@@H](C)C(=O)NCC(=O)N[C@@H](CCSC)C(=O)N[C@@H](CC(=O)O)C(=O)N[C@H](C(=O)N[C@H](C(=O)N[C@@H](CCCN=C(N)N)C(=O)N[C@@H](C)C(=O)NCC(=O)N[C@H](C(=O)N[C@@H](CC(=O)O)C(=O)N[C@H](C(=O)N[C@H](C(=O)N[C@@H](CO)C(=O)N[C@H]1CSSC[C@@H](C(=O)O)NC(=O)[C@H](CCC(=O)O)NC(=O)CNC(=O)[C@H](CCCCN)NC(=O)[C@H]([C@@H](C)CC)NC(=O)[C@H](CCCCN)NC1=O)[C@@H](C)CC)[C@@H](C)O)[C@@H](C)CC)[C@@H](C)CC)C(C)C)[C@@H](C)CC)[C@@H](C)O)[C@@H](C)CC)[C@@H](C)CC)C(C)C)[C@@H](C)O)[C@@H](C)CC)[C@@H](C)O` [GIFTKINKKKAKTGVFNIIKTIGKEAGMDVIRAGIDTISCKIKGEC] yielded an MIC [1] of 15 µM (≈ 74.1 µg/mL) and an MIC [2] of 1 µM (≈ 4.94 µg/mL).
Work on `CC[C@H](C)[C@H](NC(=O)CN)C(=O)NCC(=O)N[C@@H](C)C(=O)N[C@H](C(=O)N[C@@H](CC(C)C)C(=O)N[C@@H](CCCCN)C(=O)N[C@H](C(=O)N[C@@H](CC(C)C)C(=O)N[C@H](C(=O)N[C@H](C(=O)NCC(=O)N[C@@H](C)C(=O)N1CCC[C@H]1C(=O)N[C@@H](C)C(=O)N[C@@H](CC(C)C)C(=O)N[C@H](C(=O)N[C@@H](CO)C(=O)N[C@@H](Cc1c[nH]c2ccccc12)C(=O)N[C@H](C(=O)N[C@@H](CCCCN)C(=O)N[C@@H](CCCN=C(N)N)C(=O)N[C@@H](CCCCN)C(=O)N[C@@H](CCCN=C(N)N)C(=O)N[C@@H](CCC(N)=O)C(=O)N[C@@H](CCC(N)=O)C(N)=O)[C@@H](C)CC)[C@@H](C)CC)[C@@H](C)O)[C@@H](C)O)C(C)C)C(C)C` [GIGAVLKVLTTGAPALISWIKRKRQQ] yielded an MIC (Staphylococcus aureus) of 4.3 µM (≈ 12.1 µg/mL), an MIC (Bacillus subtilis) of 2.4 µM (≈ 6.73 µg/mL) and an MIC [4] of 4.5 µM (≈ 12.6 µg/mL).
For `CC(C)C[C@H](NC(=O)[C@H](CC(C)C)NC(=O)[C@H](CCCCN)NC(=O)CNC(=O)[C@H](CC(C)C)NC(=O)[C@H](C)NC(=O)[C@H](CCCCN)NC(=O)[C@H](CC(C)C)NC(=O)[C@H](C)NC(=O)[C@H](CO)NC(=O)[C@H](CC(C)C)NC(=O)[C@H](CC(C)C)NC(=O)CN)C(N)=O` [GLLSALKALGKLL], the MIC [5] was greater than 25 µM, the MIC [6] was 3.1 µM (≈ 4.02 µg/mL) and the MIC [7] was 1.56 µM (≈ 2.02 µg/mL). For the same molecule, the MIC [2] was 3.1 µM (≈ 4.02 µg/mL).
`CC[C@H](C)[C@H](NC(=O)[C@H](CC(N)=O)NC(=O)[C@H](CC(N)=O)NC(=O)CNC(=O)[C@H](CCC(=O)O)NC(=O)[C@H](CC(N)=O)NC(=O)[C@H](CCC(=O)O)NC(=O)[C@H](CCC(N)=O)NC(=O)[C@H](CCC(=O)O)NC(=O)[C@H](CCC(=O)O)NC(=O)[C@@H](N)CCCCN)C(=O)N[C@@H](Cc1ccccc1)C(=O)N[C@H](C(=O)N[C@@H](CC(N)=O)C(=O)N[C@@H](CCCN=C(N)N)C(=O)N[C@@H](Cc1cnc[nH]1)C(=O)N[C@H](C(=O)N[C@H](C(=O)N[C@@H](CC(=O)O)C(=O)N[C@@H](CCCCN)C(=O)N[C@@H](CC(C)C)C(=O)O)C(C)C)[C@@H](C)CC)C(C)C` [KEEQENEGNNIFVNRHIVDKL] showed an MIC [8] of no less than 1000 µM.
`CC[C@H](C)[C@H](NC(=O)CNC(=O)[C@H](CCC(N)=O)NC(=O)[C@H](CC(C)C)NC(=O)[C@H](CC(N)=O)NC(=O)[C@H](CC(C)C)NC(=O)[C@H](Cc1ccccc1)NC(=O)CNC(=O)[C@H](Cc1cnc[nH]1)NC(=O)[C@H](CCCCN)NC(=O)[C@@H](N)CCCN=C(N)N)C(=O)N[C@@H](Cc1ccccc1)C(=O)NCC(=O)N[C@@H](CC(=O)O)C(=O)N[C@@H](Cc1ccc(O)cc1)C(=O)N[C@@H](Cc1ccc(O)cc1)C(=O)N[C@@H](Cc1cnc[nH]1)C(=O)N[C@@H](Cc1ccccc1)C(=O)N[C@@H](Cc1c[nH]c2ccccc12)C(=O)N[C@@H](Cc1cnc[nH]1)C(=O)N[C@@H](CCCN=C(N)N)C(=O)NCC(=O)N[C@H](C(=O)O)C(C)C` [RKHGFLNLQGIFGDYYHFWHRGV] gave an MIC [9] of no less than 100 µM, an MIC [10] greater than 100 µM and an MIC [11] greater than 100 µM. For the same molecule, the MIC (Bacillus subtilis) was no less than 100 µM, the MIC [12] was greater than 100 µM and the MIC [13] was greater than 100 µM. The MIC [6] was no less than 100 µM and the MIC (Escherichia coli) was 4 µM (≈ 11.4 µg/mL).
